Results: paper PMC12095788 (Communications Chemistry, 2025)

Assays:
[1] = target: T1, Nurr1 LBD - RXRα LBD heterodimer (Homo sapiens, UniProt P43354); assay: HTRF Nurr1-RXRα heterodimer formation assay; type: biochemical; set-up: a plasmid construct encoding Nurr1 (aa 364-598) in a pMal vector system; MBP (cleaved yes); made in house; host or cells: E.coli BL21-R3-pRARE2 (biotinylated Nurr1 LBD)
Experimental: Assay solutions were prepared in HTRF assay buffer supplemented with 0.1% (w/v) CHAPS as well as 1% DMSO with test compounds at fixed concentrations or DMSO alone as negative control (apo). […] Samples were equilibrated at RT for 2 h before FI520 and FI620 were recorded after excitation at 340 nm, and the HTRF signal was calculated as described above.

Nurr1 LBD - NCoA6 = target: T2, Nurr1 LBD - NCoA6 (Homo sapiens, UniProt P43354); assay: HTRF co-regulator recruitment assay, NCoA6; type: biochemical; details: fluorescein labeled coactivator peptide, read-out: IC50 NCoA6 displacement from Nurr1 LBD
T2 construct: a plasmid construct encoding Nurr1 (aa 364-598) in a pMal vector system; MBP (cleaved yes); made in house; host or cells: E. coli BL21-R3-pRARE2
Source text: (§1) Homogeneous time-resolved fluorescence energy transfer (HTRF) experiments were used to study the recruitment of co-regulator peptides to the Nurr1-LBD in the presence or absence of test compounds. Terbium cryptate as streptavidin conjugate (Tb-SA; Cisbio Bioassays, Codolet, France) was used as FRET donor for stable coupling to biotinylated recombinant Nurr1 LBD protein. Fluorescein-labeled co-regulator peptides were used as FRET acceptors (peptide sequences are reported in Supplementary Tab. 4). […] Recruitment of CoREST and Lmx1b peptides was studied using biotin-labeled peptides for stable coupling to Tb-SA as FRET donor and sGFP-Nurr1[26] LBD as FRET acceptor. […] Experiments were carried out in 384 well format using white flat bottom small volume polystyrol microtiter plates (Greiner Bio-One, Frickenhausen, Germany). After 2 h incubation at rt, fluorescence intensities (FI) after excitation at 340 nm were recorded at 520 nm for fluorescein acceptor fluorescence and 620 nm for Tb-SA donor fluorescence on a SPARK plate reader (Tecan Group Ltd.). FI520 nm was divided by FI620 nm and multiplied with 10,000 to give a dimensionless HTRF signal.

[2] = target: full-length human Nurr1 (NBRE) (Homo sapiens, UniProt P43354); assay: Full-length Nurr1 reporter gene assay, monomer response element (NBRE); type: cell-based
Nurr1 LBD (wt) [3] = target: T3, Nurr1 LBD (wt) (Homo sapiens, UniProt P43354); assay: Binding kinetics by biolayer interferometry (BLI); set-up: For generation of biotinylated Nurr1 a plasmid construct encoding Nurr1 (aa 364-598) in a pMal vector system; MBP (cleaved yes); made in house; host or cells: E.coli BL21-R3-pRARE2; details: read-out: dissociation rate koff
Target sequence in this assay (P43354 364-598): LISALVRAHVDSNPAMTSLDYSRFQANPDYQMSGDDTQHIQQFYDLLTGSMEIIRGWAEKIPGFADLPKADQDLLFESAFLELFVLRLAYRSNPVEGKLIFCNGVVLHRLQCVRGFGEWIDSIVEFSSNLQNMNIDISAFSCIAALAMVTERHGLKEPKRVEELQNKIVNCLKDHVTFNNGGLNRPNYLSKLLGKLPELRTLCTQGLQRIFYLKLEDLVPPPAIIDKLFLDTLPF
Experimental: BLI measurements were conducted using the Octet R8 instrument (Sartorius). Nurr1 was enzymatically biotinylated using BirA, and Super Streptavidin (SSA) sensors were used to capture the biotinylated Nurr1. Prior to the assay, SSA sensors were pre-soaked for 10 minutes in a buffer containing 20 mM HEPES (pH 7.4), 150 mM NaCl, 0.01% Tween-20, and 0.5% DMSO. The sensors were then loaded with 2 μM biotinylated Nurr1 for 10 min, reaching a response of ~10 nm. Free biotin sites were blocked by incubating the sensors with 20 μg/ml biocytin for 1 minute. After quenching, the sensors were washed for 20 min with HEPES buffer and equilibrated for 5 min in the same buffer supplemented with 1% PEG3K. The binding of compounds was monitored for 120 s, followed by a 120 s dissociation phase. Two control experiments were conducted: one with sensors coated with the protein but without the compound, and the other with uncoated biosensors exposed to the compound at corresponding concentrations. These controls were used to correct for non-specific binding and baseline interference.

Nurr1 LBD - NRIP = target: T4, Nurr1 LBD - NRIP (Homo sapiens, UniProt P43354); assay: HTRF co-regulator recruitment assay, NRIP; type: biochemical; details: fluorescein labeled coactivator peptide, read-out: IC50 NRIP displacement from Nurr1 LBD
T4 construct: a plasmid construct encoding Nurr1 (aa 364-598) in a pMal vector system; MBP (cleaved yes); made in house; host or cells: E. coli BL21-R3-pRARE2
Source text: as §1

[4] = target: full-length human Nurr1 (NurRE) (Homo sapiens, UniProt P43354); assay: Full-length Nurr1 reporter gene assay, homodimer response element (NurRE); type: cell-based
[5] = target: T5, Gal4-Nurr1 (wt human Nurr1 LBD) (Homo sapiens, UniProt P43354); assay: Gal4-Nurr1 hybrid reporter gene assay (wild-type); type: cell-based
T5 construct: expressed in transfected cells; host or cells: HEK293T

Nurr1 LBD (wt) [6] = target: T3, Nurr1 LBD (wt); assay: ITC ligand binding to Nurr1 wt LBD; details: for n ligand binding to Nurr1 LBD: ITC stoichiometry; for n ligand binding to Nurr1 LBD / TΔS ligand binding to Nurr1 LBD: wt LBD
Target sequence in this assay (P43354 360-595 limits assumed): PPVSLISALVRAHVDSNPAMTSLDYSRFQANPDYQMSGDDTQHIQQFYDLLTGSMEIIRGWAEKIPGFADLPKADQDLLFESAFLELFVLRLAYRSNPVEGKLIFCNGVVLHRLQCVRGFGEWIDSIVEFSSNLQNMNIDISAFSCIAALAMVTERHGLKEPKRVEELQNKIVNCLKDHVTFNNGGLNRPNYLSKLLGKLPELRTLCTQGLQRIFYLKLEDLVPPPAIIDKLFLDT

Nurr1 LBD - Lmx1b = target: T6, Nurr1 LBD - Lmx1b (Homo sapiens, UniProt P43354); assay: HTRF co-regulator recruitment assay, Lmx1b; type: biochemical; details: biotinylated Lmx1b peptide, sGFP-Nurr1 LBD
T6 construct: sGFP-Nurr1[26]; LBD as FRET acceptor; made in house
Source text: as §1

Nurr1 LBD - CoREST = target: T7, Nurr1 LBD - CoREST (Homo sapiens, UniProt P43354); assay: HTRF co-regulator recruitment assay, CoREST; type: biochemical; details: biotinylated CoREST peptide, sGFP-Nurr1 LBD
T7 construct: sGFP-Nurr1[26]; LBD as FRET acceptor; made in house
Source text: as §1

[7] = target: full-length human Nurr1 / RXR heterodimer (DR5) (Homo sapiens, UniProt P43354); assay: Full-length Nurr1 reporter gene assay, RXR-heterodimer response element (DR5); type: cell-based
Nurr1 LBD - SMRT = target: T8, Nurr1 LBD - SMRT (Homo sapiens, UniProt P43354); assay: HTRF co-regulator recruitment assay, SMRT; type: biochemical; details: fluorescein labeled corepressor peptide, read-out: IC50 SMRT displacement from Nurr1 LBD
T8 construct: a plasmid construct encoding Nurr1 (aa 364-598) in a pMal vector system; MBP (cleaved yes); made in house; host or cells: E. coli BL21-R3-pRARE2
Source text: as §1

Nurr1 LBD - NCOR1 = target: T9, Nurr1 LBD - NCOR1 (Homo sapiens, UniProt P43354); assay: HTRF co-regulator recruitment assay, NCOR1; type: biochemical; details: fluorescein labeled corepressor peptide, read-out: IC50 NCOR1 displacement from Nurr1 LBD
T9 construct: a plasmid construct encoding Nurr1 (aa 364-598) in a pMal vector system; MBP (cleaved yes); made in house; host or cells: E. coli BL21-R3-pRARE2
Source text: as §1

Nurr1 LBD - PIASγ = target: T10, Nurr1 LBD - PIASγ (Homo sapiens, UniProt P43354); assay: HTRF co-regulator recruitment assay, PIASγ; type: biochemical; details: fluorescein labeled corepressor peptide, read-out: IC50 PIASγ displacement from Nurr1 LBD
T10 construct: a plasmid construct encoding Nurr1 (aa 364-598) in a pMal vector system; MBP (cleaved yes); made in house; host or cells: E. coli BL21-R3-pRARE2
Source text: as §1

[8] = target: T1, Nurr1 LBD - RXRα LBD heterodimer; assay: ITC Nurr1-RXR dimerization; details: ITC stoichiometry, ligand 200 µM
Gal4-Nurr1 I500F = target: T11, Gal4-Nurr1 I500F (Homo sapiens, UniProt P43354, I500F); assay: Gal4-Nurr1 hybrid reporter gene assay, mutant I500F; type: cell-based; details: vs wt
T11 construct: expressed in transfected cells; host or cells: HEK293T

Gal4-Nurr1 I500W/V373W = target: T12, Gal4-Nurr1 I500W/V373W (Homo sapiens, UniProt P43354, I500W/V373W); assay: Gal4-Nurr1 hybrid reporter gene assay, double mutant I500W/V373W; type: cell-based; details: fold reporter activation vs. DMSO
T12 construct: expressed in transfected cells; host or cells: HEK293T

Gal4-Nurr1 H372F = target: T13, Gal4-Nurr1 H372F (Homo sapiens, UniProt P43354, H372F); assay: Gal4-Nurr1 hybrid reporter gene assay, mutant H372F; type: cell-based; details: vs wt
T13 construct: expressed in transfected cells; host or cells: HEK293T
T13 sequence (P43354 360-595 H372F limits assumed): as the sequence (P43354 360-595 limits assumed) above, with H13F counted along it

T7 sequence (P43354 360-595 limits assumed): as the sequence (P43354 360-595 limits assumed) above
T5 sequence (P43354 360-595 limits assumed): as above
T1 sequence (P43354 364-598, one chain of several): as the sequence (P43354 364-598) above
T6 sequence (P43354 360-595 limits assumed): as the sequence (P43354 360-595 limits assumed) above
T6 sequence (O60663 382-402 partner limits assumed): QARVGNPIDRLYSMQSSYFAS
Chain of full-length human Nurr1 (NurRE) (P43354 whole entry, the tested form may be a part): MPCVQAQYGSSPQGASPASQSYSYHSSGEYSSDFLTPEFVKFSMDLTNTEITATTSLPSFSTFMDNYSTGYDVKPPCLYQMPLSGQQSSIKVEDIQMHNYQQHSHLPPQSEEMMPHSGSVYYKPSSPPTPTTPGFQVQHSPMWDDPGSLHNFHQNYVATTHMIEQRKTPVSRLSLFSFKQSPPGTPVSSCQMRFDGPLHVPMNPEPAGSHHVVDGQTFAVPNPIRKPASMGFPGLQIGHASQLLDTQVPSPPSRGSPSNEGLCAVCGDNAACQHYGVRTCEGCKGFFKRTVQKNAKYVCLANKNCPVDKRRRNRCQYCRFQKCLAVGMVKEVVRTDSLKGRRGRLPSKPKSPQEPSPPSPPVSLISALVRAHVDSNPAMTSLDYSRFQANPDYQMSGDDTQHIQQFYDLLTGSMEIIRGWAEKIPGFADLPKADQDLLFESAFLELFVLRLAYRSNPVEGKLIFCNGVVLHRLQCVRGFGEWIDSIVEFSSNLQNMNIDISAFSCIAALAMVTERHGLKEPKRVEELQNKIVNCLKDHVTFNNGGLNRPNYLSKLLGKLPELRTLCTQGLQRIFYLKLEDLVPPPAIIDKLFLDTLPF
Chain of full-length human Nurr1 (NBRE) (P43354 whole entry, the tested form may be a part): as above
Chain of full-length human Nurr1 / RXR heterodimer (DR5) (P43354 whole entry, the tested form may be a part, one chain of several): as the sequence (P43354 whole entry, the tested form may be a part) above
T8 sequence (P43354 364-598): as the sequence (P43354 364-598) above
T9 sequence (P43354 364-598): as above
T2 sequence (P43354 364-598): as above
T10 sequence (P43354 364-598): as above
T4 sequence (P43354 364-598): as above
T12 sequence (P43354 360-595 V373W/I500W limits assumed): as the sequence (P43354 360-595 limits assumed) above, with V14W, I141W counted along it
T11 sequence (P43354 360-595 I500F limits assumed): as the sequence (P43354 360-595 limits assumed) above, with I141F counted along it

O=C(O)C1=C(C(=O)Nc2ccc(-c3ccccc3OCc3ccccc3)cc2F)CCC1 [compound 1, 2-{[2’-(Benzyloxy)-3-fluoro-[1,1’-biphenyl]-4-yl]carbamoyl}cyclopent-1-ene-1-carboxylic acid]
effect on Nurr1-RXR heterodimerization [1]: weakened
IC50 (Nurr1 LBD - NCoA6): 7000 ± 2000 nM
EC50 [2]: 60 ± 10 nM
koff (Nurr1 LBD (wt) [3]): 0.0224 s⁻¹
IC50 (Nurr1 LBD - NRIP): 7000 ± 2000 nM
EC50 [4]: 70 ± 10 nM
EC50 ([5]; HEK293T, Gal4 hybrid reporter, wt): 30 ± 10 nM
potency on Gal4-Nurr1 relative to vidofludimus ([5]; higher potency than vidofludimus): 10 fold
Kd (Nurr1 LBD (wt) [6]): 110 nM
n ligand binding to Nurr1 LBD (Nurr1 LBD (wt) [6]): 1.00±0.04
TΔS ligand binding to Nurr1 LBD (Nurr1 LBD (wt) [6]; ITC): -5.5 ± 1.8 kcal/mol
affinity to Nurr1 LBD relative to vidofludimus (Nurr1 LBD (wt) [6]; enhanced affinity vs vidofludimus, ITC): 7 fold
effect on Lmx1b recruitment to Nurr1 LBD (Nurr1 LBD - Lmx1b): no effect
effect on CoREST recruitment to Nurr1 LBD (Nurr1 LBD - CoREST): slightly reduced
EC50 [7]: 60 ± 10 nM
IC50 (Nurr1 LBD - SMRT): 5000 ± 2000 nM
IC50 (Nurr1 LBD - NCOR1): 4000 ± 1000 nM
IC50 (Nurr1 LBD - PIASγ): 12000 ± 2000 nM
n Nurr1 LBD – RXR LBD [8]: 0.98±0.09

CC(C)n1c(/C=C/C(O)CC(O)CC(=O)O)c(-c2ccc(F)cc2)c2ccccc21 (stereo not shown) [fluvastatin, reference compound]
effect of I500F mutation on Nurr1 activation by the ligand (Gal4-Nurr1 I500F): did not alter
activation of Gal4-Nurr1 double mutant I500W/V373W (Gal4-Nurr1 I500W/V373W): responded
n ligand binding to Nurr1 LBD (Nurr1 LBD (wt) [6]): 0.90±0.04
TΔS ligand binding to Nurr1 LBD (Nurr1 LBD (wt) [6]; ITC): 3.7 ± 0.3 kcal/mol
effect on CoREST recruitment to Nurr1 LBD (Nurr1 LBD - CoREST): slightly reduced
effect of H372F mutation on Nurr1 activation by the ligand (Gal4-Nurr1 H372F): did not alter
